Measurements taken from PMC11823630, “In vitro potentiation of tetracyclines in Pseudomonas aeruginosa by RW01, a new cyclic peptide” (Antimicrobial Agents and Chemotherapy, 2024).
Values after ≈ are worked out from the molar mass of the structure shown.

How the values were obtained:
[1] = system: PAO1 mutant MIN1_RW01_4, pmrB(F124L); experiment: MIC, E-test on MHA; assay type: cell-based; conditions: Pseudomonas aeruginosa, PAO1, read-out: MIC, E-test
[2] = system: PAO1 mutant MIN16_2, nalC(aa9∆4), pilQ(nt46∆1); experiment: MIC, E-test on MHA; assay type: cell-based; conditions: Pseudomonas aeruginosa, PAO1, read-out: MIC, E-test
[3] = system: PAO1 mutant MIN16_1, nalD(T43P); experiment: MIC, E-test on MHA; assay type: cell-based; conditions: Pseudomonas aeruginosa, PAO1, read-out: MIC, E-test
[4] = system: PAO1 mutant MIN2_RW01_4, pmrB(M292T); experiment: MIC, E-test on MHA; assay type: cell-based; conditions: Pseudomonas aeruginosa, PAO1, read-out: MIC, E-test
[5] = system: PAO1 mutant MIN4_RW01_3, pmrB(M292T); experiment: MIC, E-test on MHA; assay type: cell-based; conditions: Pseudomonas aeruginosa, PAO1, read-out: MIC, E-test
[6] = system: PAO1 mutant MIN8_2, pilZ(nt18InsT); experiment: MIC, E-test on MHA; assay type: cell-based; conditions: Pseudomonas aeruginosa, PAO1, read-out: MIC, E-test
[7] = system: PAO1 mutant MIN2_RW01_2, pmrB(M292T); experiment: MIC, E-test on MHA; assay type: cell-based; conditions: Pseudomonas aeruginosa, PAO1, read-out: MIC, E-test
[8] = system: PAO1 mutant MIN16_4, nalC(T50P), pilM(Q62X); experiment: MIC, E-test on MHA; assay type: cell-based; conditions: Pseudomonas aeruginosa, PAO1, read-out: MIC, E-test
[9] = system: PAO1 mutant MIN2_RW01_1, pmrB(V215L); experiment: MIC, E-test on MHA; assay type: cell-based; conditions: Pseudomonas aeruginosa, PAO1, read-out: MIC, E-test
[10] = system: PAO1 mutant MIN8_1, nalD(R3C), pilM(Q62X); experiment: MIC, E-test on MHA; assay type: cell-based; conditions: Pseudomonas aeruginosa, PAO1, read-out: MIC, E-test
[11] = system: PAO1 mutant MIN1_RW01_3, pmrB(V215L); experiment: MIC, E-test on MHA; assay type: cell-based; conditions: Pseudomonas aeruginosa, PAO1, read-out: MIC, E-test
P. aeruginosa PAO1 [12] = experiment: MIC in the presence of 25% mouse serum; conditions: for MIC: Pseudomonas aeruginosa
[13] = system: PAO1 mutant MIN4_RW01_1, pmrB(R429H); experiment: MIC, E-test on MHA; assay type: cell-based; conditions: Pseudomonas aeruginosa, PAO1, read-out: MIC, E-test
[14] = system: PAO1 mutant MIN2_RW01_3, parS(V152A); experiment: MIC, E-test on MHA; assay type: cell-based; conditions: Pseudomonas aeruginosa, PAO1, read-out: MIC, E-test
[15] = system: PAO1 mutant MIN1_RW01_2, mexR(G58E), pilB(G326D), hutC(Y181X); experiment: MIC, E-test on MHA; assay type: cell-based; conditions: Pseudomonas aeruginosa, PAO1, read-out: MIC, E-test
[16] = system: PAO1 mutant MIN1_RW01_1, pmrB(Y98N); experiment: MIC, E-test on MHA; assay type: cell-based; conditions: Pseudomonas aeruginosa, PAO1, read-out: MIC, E-test
[17] = system: PAO1 mutant MIN32_1, mexR(R63H), pilB(N349K), PA0646(V316G); experiment: MIC, MHB microdilution; conditions: Pseudomonas aeruginosa, PAO1, read-out: MIC, MHB microdilution
[18] = system: PAO1 mutant MIN8_3, pilZ(nt18InsT); experiment: MIC, MHB microdilution; conditions: Pseudomonas aeruginosa, PAO1, read-out: MIC, MHB microdilution
[19] = system: PAO1 mutant MIN2_RW01_2, pmrB(M292T); experiment: MIC, MHB microdilution; conditions: Pseudomonas aeruginosa, PAO1, read-out: MIC, MHB microdilution
[20] = system: PAO1 mutant MIN1_RW01_3, pmrB(V215L); experiment: MIC, MHB microdilution; conditions: Pseudomonas aeruginosa, PAO1, read-out: MIC, MHB microdilution
P. aeruginosa PAO1 [21] = experiment: One-step mutant generation and resistant population analysis on MHA; assay type: cell-based, Pseudomonas aeruginosa
Description: (§1) Selection of resistant mutants was performed for minocycline with and without RW01 in three independent replicates for wild-type P. aeruginosa reference strain PAO1. Tubes containing Mueller-Hinton broth (MHB) were inoculated and incubated for 24 h at 37°C. Afterward, 1/100 dilution of each tube was incubated at 37°C in MHB to late-exponential growth phase, measured by spectrophotometry at OD600. […] A control plate without antibiotic was included as inoculum control. After overnight incubation, colony counting of each treatment was performed to analyze the generation of resistant population. The mutant prevention concentration (MPC) was defined as the lowest concentration of antibiotic yielding no growth of resistant mutants. Selected mutants were checked for susceptibility profiles by using a Sensititre custom plate (Thermo Fisher Scientific, Massachusetts, USA) for Gram-negative bacteria, following the manufacturer’s instructions.

[22] = system: PAO1 mutant MIN1_RW01_2, mexR(G58E), pilB(G326D), hutC(Y181X); experiment: MIC, MHB microdilution; conditions: Pseudomonas aeruginosa, PAO1, read-out: MIC, MHB microdilution
[23] = system: PAO1 mutant MIN8_2, pilZ(nt18InsT); experiment: MIC, MHB microdilution; conditions: Pseudomonas aeruginosa, PAO1, read-out: MIC, MHB microdilution
[24] = system: PAO1 mutant MIN8_1, nalD(R3C), pilM(Q62X); experiment: MIC, MHB microdilution; conditions: Pseudomonas aeruginosa, PAO1, read-out: MIC, MHB microdilution
[25] = system: PAO1 mutant MIN16_2, nalC(aa9∆4), pilQ(nt46∆1); experiment: MIC, MHB microdilution; conditions: Pseudomonas aeruginosa, PAO1, read-out: MIC, MHB microdilution
[26] = system: PAO1 mutant MIN16_4, nalC(T50P), pilM(Q62X); experiment: MIC, MHB microdilution; conditions: Pseudomonas aeruginosa, PAO1, read-out: MIC, MHB microdilution
[27] = system: PAO1 mutant MIN16_1, nalD(T43P); experiment: MIC, MHB microdilution; conditions: Pseudomonas aeruginosa, PAO1, read-out: MIC, MHB microdilution
[28] = system: PAO1 mutant MIN1_RW01_1, pmrB(Y98N); experiment: MIC, MHB microdilution; conditions: Pseudomonas aeruginosa, PAO1, read-out: MIC, MHB microdilution
[29] = system: PAO1 mutant MIN16_3, nfxB(nt79∆14), pilB(N349K); experiment: MIC, MHB microdilution; conditions: Pseudomonas aeruginosa, PAO1, read-out: MIC, MHB microdilution
PAO1 one-step mutants = experiment: MIC, MHB microdilution, mutants summarised as a group; assay type: cell-based, Pseudomonas aeruginosa
Description: (§2) MIC for RW01 was also tested.
as §1

[30] = system: PAO1 mutant MIN4_RW01_3, pmrB(M292T); experiment: MIC, MHB microdilution; conditions: Pseudomonas aeruginosa, PAO1, read-out: MIC, MHB microdilution
10 P. aeruginosa strains = experiment: MIC with and without RW01, summary over the strain collection; assay type: cell-based, Pseudomonas aeruginosa; conditions: RW01 100 mg/L; all strains tested
Description: as §2

`C[C@H]1c2cccc(O)c2C(=O)C2=C(O)[C@]3(O)C(=O)C(C(N)=O)=C(O)[C@@H](N(C)C)[C@@H]3[C@@H](O)[C@@H]21` [Doxycycline, doxycycline] gave an MIC [1] of 96 µg/mL (≈ 216 µM), an MIC [2] of 128 µg/mL (≈ 288 µM) and an MIC [3] of 256 µg/mL (≈ 576 µM). For the same compound, the MIC [4] was 64 µg/mL (≈ 144 µM), the MIC [5] was 128 µg/mL (≈ 288 µM) and the MIC [6] was 256 µg/mL (≈ 576 µM). The MIC [7] was 128 µg/mL (≈ 288 µM), the MIC [8] was 128 µg/mL (≈ 288 µM) and the MIC [9] was 96 µg/mL (≈ 216 µM). The MIC [10] was 256 µg/mL (≈ 576 µM), the MIC [11] was 64 µg/mL (≈ 144 µM) and the “MIC in the presence of serum” value (P. aeruginosa PAO1 [12]; PAO1, antibiotic alone, 25% non-inactivated C57BL/6RJ mouse serum) was “unchanged”. The “MIC + RW01 in the presence of serum” value (P. aeruginosa PAO1 [12]; PAO1, antibiotic with RW01 100 mg/L, 25% non-inactivated C57BL/6RJ mouse serum) was “unchanged”, the MIC [13] was 256 µg/mL (≈ 576 µM) and the MIC [14] was 256 µg/mL (≈ 576 µM). It also gave an MIC [15] of 256 µg/mL (≈ 576 µM) and an MIC [16] of 96 µg/mL (≈ 216 µM).
Work on `CN(C)c1ccc(O)c2c1C[C@H]1C[C@H]3[C@H](N(C)C)C(O)=C(C(N)=O)C(=O)[C@@]3(O)C(O)=C1C2=O` [Minocycline, minocycline] yielded an MIC [17] of 32 to 64 µg/mL (≈ 69.9 to 140 µM), an MIC [18] of 16 µg/mL (≈ 35 µM) and an MIC [19] of 16 to 32 µg/mL (≈ 35 to 69.9 µM). The MIC [20] was 16 µg/mL (≈ 35 µM), the “mutant prevention concentration (MPC)” value (P. aeruginosa PAO1 [21]; PAO1, minocycline alone, three independent replicates) was 32 to 64 mg/L and the “mutant prevention concentration (MPC) with RW01” value (P. aeruginosa PAO1 [21]; PAO1, minocycline co-administered with RW01 100 mg/L) was 8 mg/L. It also gave an MIC (P. aeruginosa PAO1 [21]; Pseudomonas aeruginosa, PAO1, read-out: MIC (population studies)) of 4 to 8 µg/mL (≈ 8.74 to 17.5 µM), an MIC [22] of 32 to 64 µg/mL (≈ 69.9 to 140 µM) and an MIC [23] of 16 µg/mL (≈ 35 µM). The MIC [24] was 16 µg/mL (≈ 35 µM), the MIC [25] was 16 µg/mL (≈ 35 µM) and the MIC [26] was 16 µg/mL (≈ 35 µM). For the same compound, the MIC (P. aeruginosa PAO1 [12]; PAO1, read-out: MIC + RW01 in the presence of serum) was 4 µg/mL, the MIC (P. aeruginosa PAO1 [12]; PAO1, read-out: MIC in the presence of serum) was 32 µg/mL and the MIC [27] was 16 µg/mL (≈ 35 µM). The MIC [28] was 16 µg/mL (≈ 35 µM), the MIC [29] was 16 to 32 µg/mL (≈ 35 to 69.9 µM) and the MIC (PAO1 one-step mutants; Pseudomonas aeruginosa, PAO1, read-out: highest MIC among the mutants) was ≤ 64 µg/mL. The “MIC range over the tested mutants” value (PAO1 one-step mutants; agent alone, both mutant types, for minocycline the typical range) was 16 to 32 µg/mL, the “MIC of the minocycline-RW01 combination” value (PAO1 one-step mutants; mutants selected by minocycline + RW01) was 4.0 to 8.0 µg/mL and the MIC [30] was 64 µg/mL (≈ 140 µM).
With `CN(C)c1cc(NC(=O)CNC(C)(C)C)c(O)c2c1C[C@H]1C[C@H]3[C@H](N(C)C)C(O)=C(C(N)=O)C(=O)[C@@]3(O)C(O)=C1C2=O` [Tigecycline, tigecycline] the MIC [1] was 24 µg/mL (≈ 41 µM), the MIC [2] was 32 µg/mL (≈ 54.6 µM) and the MIC [3] was 16 µg/mL (≈ 27.3 µM). The MIC [4] was 16 µg/mL (≈ 27.3 µM), the MIC [5] was 32 µg/mL (≈ 54.6 µM) and the “MIC reduction on combination with RW01 over the strains” value (10 P. aeruginosa strains) was “four- to eightfold”. It also gave an MIC [6] of 32 µg/mL (≈ 54.6 µM), an MIC [7] of 16 µg/mL (≈ 27.3 µM) and an MIC [8] of 16 µg/mL (≈ 27.3 µM). It also gave an MIC [9] of 24 µg/mL (≈ 41 µM), an MIC [10] of 32 µg/mL (≈ 54.6 µM) and an MIC [11] of 16 µg/mL (≈ 27.3 µM). It also gave an MIC [13] of 16 µg/mL (≈ 27.3 µM), an MIC [14] of 48 µg/mL (≈ 82 µM) and an MIC [15] of 32 µg/mL (≈ 54.6 µM). It also gave an MIC [16] of 24 µg/mL (≈ 41 µM).
